Test results reported in patent US20240317721A1, “PYRAZOLYL DERIVATIVES AS INHIBITORS OF THE KRAS MUTANT PROTEIN” (NOVARTIS AG, priority 2021, published 2024).

Biological target: KRasG12C (M1-K169, biotinylated on the N-terminus) (Homo sapiens (Human), UniProt P01116, G12C)
Assay: Covalent competition assay: scintillation proximity assay (SPA) quantifying covalent modification of KRASG12C
Assay type: binding
Conditions: competition with radiolabeled covalent probe (Compound B/Compound A), 2 hours incubation, 10 nM KRasG12C
Summary of the method: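 Test compounds compete with a radiolabeled covalent probe for modification of N-terminally biotinylated KRasG12C(M1-K169):GDP, final 10 nM protein, 25 nM radio-ligand, 475 nM unlabelled ligand, 2 h with agitation in 20 mM Tris-HCl pH 7.5, 150 mM NaCl, 0.1 mM MgCl2, 0.01% Tween-20.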

Compound	IC50
C=CC(=O)N1CC2(CC(n3nc(N4CCC(N5C6CCC5COC6)CC4(C)C)c(-c4c(Cl)c(C)cc5[nH]ncc45)c3C)C2)C1 [Example 74a, 1-(6-(3-(4-((1R,5S)-3-oxa-8-azabicyclo[3.2.1]octan-8-yl)-2,2-dimethylpiperidin-1-yl)-4-(5-chloro-6-methyl-1H-indazol-4-yl)-5-methyl-1H-pyrazol-1-yl)-2-azaspiro[3.3]heptan-2-yl)prop-2-en-1-one]	> 5000 nM
C=CC(=O)N1CC2(CC(n3nc(N4CC[C@@H](CN5CCOCC5)CC4(C)C)c(-c4c(Cl)c(Cl)cc5[nH]ncc45)c3C)C2)C1 (single isomer, unassigned) [Example 213a]	3500 nM
C=CC(=O)N1CC2(CC(n3nc(N4CCN(C5CCOCC5)C[C@@]4(C)C(F)F)c(-c4c(Cl)c(C)cc5[nH]ncc45)c3C)C2)C1 (single isomer, unassigned) [Example 146a]	> 5000 nM
C=CC(=O)N1CC2(CC(n3nc(N4CCn5ccnc5C4(C)C)c(-c4c(Cl)c(C)cc5[nH]ncc45)c3C)C2)C1 (single isomer, unassigned) [Example 23b, 1-(6-(4-(5-chloro-6-methyl-1H-indazol-4-yl)-3-(8,8-dimethyl-5,6-dihydroimidazo[1,2-a]pyrazin-7(8H)-yl)-5-methyl-1H-pyrazol-1-yl)-2-azaspiro[3.3]heptan-2-yl)prop-2-en-1-one]	634 nM
C=CC(=O)N1CC2(CC(n3nc(N4CC[C@@H](CN5CCOC6CS(=O)(=O)CC65)CC4(C)C)c(-c4c(Cl)c(Cl)cc5[nH]ncc45)c3C)C2)C1 (single isomer, unassigned) [Example 266b, 1-(6-(4-(5,6-dichloro-1H-indazol-4-yl)-3-((R)-4-(((4aR*,7aS*)-6,6-dioxidohexahydro-4H-thieno[3,4-b][1,4]oxazin-4-yl)methyl)-2,2-dimethylpiperidin-1-yl)-5-methyl-1H-pyrazol-1-yl)-2-azaspiro[3.3]heptan-2-yl)prop-2-en-1-one]	7 nM
C=CC(=O)N1CC2(CC(n3nc(N4CC[C@@H](CN5CCN6C(=O)N(C)CC6C5)CC4(C)C)c(-c4c(Cl)c(Cl)cc5[nH]ncc45)c3C)C2)C1 (single isomer, unassigned) [Example 264a]	351 nM
Cc1cc2[nH]ncc2c(-c2c(N3CCN(C4COC4)CC34CCC4)nn(C3CC4(C3)CN(C(=O)[C@@H]3CO3)C4)c2C)c1Cl [Example 139, (S)-(6-(4-(5-chloro-6-methyl-1H-indazol-4-yl)-5-methyl-3-(8-(oxetan-3-yl)-5,8-diazaspiro[3.5]nonan-5-yl)-1H-pyrazol-1-yl)-2-azaspiro[3.3]heptan-2-yl)(oxiran-2-yl)methanone]	450 nM
C=CC(=O)N1CC2(CC(n3nc(N4CC[C@@H](CN5CCN6C[C@@H](O)C[C@@H]6C5)CC4(C)C)c(-c4c(Cl)c(Cl)cc5[nH]ncc45)c3C)C2)C1 (single isomer, unassigned) [Example 287b]	9 nM
C=CC(=O)N1CC2(CC(n3nc(N4CCN(C5COC5)CC45CCC5)c(-c4c(Cl)c(C)cc5[nH]ncc45)c3C)C2)C1 (single isomer, unassigned) [Example 54b, 1-(6-(4-(5-Chloro-6-methyl-1H-indazol-4-yl)-5-methyl-3-(8-(oxetan-3-yl)-5,8-diazaspiro[3.5]nonan-5-yl)-1H-pyrazol-1-yl)-2-azaspiro[3.3]heptan-2-yl)prop-2-en-1-one]	15 nM
C=CC(=O)N1CC2(CC(n3nc(N4CCN(C5COC5)C[C@@]4(C)CC)c(-c4c(Cl)c(C)cc5[nH]ncc45)c3C)C2)C1 (single isomer, unassigned) [Example 143a]	> 5000 nM
C=CC(=O)N1CC2(CC(n3nc(N4CCS(=O)(=O)CC4(C)C)c(-c4c(Cl)c(C)cc5[nH]ncc45)c3C)C2)C1 (single isomer, unassigned) [Example 82b, 1-(6-(4-(5-chloro-6-methyl-1H-indazol-4-yl)-3-(3,3-dimethyl-1,1-dioxidothiomorpholino)-5-methyl-1H-pyrazol-1-yl)-2-azaspiro[3.3]heptan-2-yl)prop-2-en-1-one]	831 nM
C=CC(=O)N1CC2(CC(n3nc(N4CCN(C5COC5)C[C@]4(C)CCOC)c(-c4c(Cl)c(C)cc5[nH]ncc45)c3C)C2)C1 (single isomer, unassigned) [Example 86b]	8 nM

Now from value to compound:

IC50	Compound
5 nM	C=CC(=O)N1CC2(CC(n3nc(N4CCN(C5COC5)C[C@]4(C)CC)c(-c4c(Cl)c(Cl)cc5[nH]ncc45)c3C)C2)C1 (single isomer, unassigned) [Example 155b]
5000 nM	C=CC(=O)N1CC2(CC(n3nc(N4CCN(C[C@@H]5COCCO5)C[C@]4(C)CCOC)c(-c4c(Cl)c(C)cc5[nH]ncc45)c3C)C2)C1 (single isomer, unassigned) [Example 85a]
3400 nM	C=CC(=O)N1CC2(CC(n3nc(N4CCN(C[C@@H]5COCCO5)C[C@]4(C)CC)c(-c4c(Cl)c(Cl)cc5[nH]ncc45)c3C)C2)C1 (single isomer, unassigned) [Example 89a]
49700 nM	C=CC(=O)N1CC2(CC(n3nc(N4CCN(C(C)=O)CC4)c(-c4c(Cl)ccc5[nH]ncc45)c3C)C2)C1C (single isomer, unassigned) [Example 197b, 1-(6-(3-(4-acetylpiperazin-1-yl)-4-(5-chloro-1H-indazol-4-yl)-5-methyl-1H-pyrazol-1-yl)-1-methyl-2-azaspiro[3.3]heptan-2-yl)prop-2-en-1-one]
103 nM	C=CC(=O)N1CC2(CC(n3nc(N4CCn5nccc5C4(C)C)c(-c4c(Cl)c(C)cc5[nH]ncc45)c3C)C2)C1 (single isomer, unassigned) [Example 101b, 1-(6-(4-(5-chloro-6-methyl-1H-indazol-4-yl)-3-(4,4-dimethyl-6,7-dihydropyrazolo[1,5-a]pyrazin-5(4H)-yl)-5-methyl-1H-pyrazol-1-yl)-2-azaspiro[3.3]heptan-2-yl)prop-2-en-1-one]
697 nM	C=CC(=O)N1CC2(CC(n3nc(N4CCN(C5CCOC5)CC45CCC5)c(-c4c(Cl)c(C)cc5[nH]ncc45)c3C)C2)C1 (single isomer, unassigned) [Example 132a, 1-(6-(4-(5-chloro-6-methyl-1H-indazol-4-yl)-5-methyl-3-(8-(tetrahydrofuran-3-yl)-5,8-diazaspiro[3.5]nonan-5-yl)-1H-pyrazol-1-yl)-2-azaspiro[3.3]heptan-2-yl)prop-2-en-1-one]
140 nM	CC[C@@]1(C)CN(C[C@@H]2COCCO2)CCN1c1nn(C2CC3(C2)CN(C(=O)/C=C/COC)C3)c(C)c1-c1c(Cl)c(C)cc2[nH]ncc12 (single isomer, unassigned) [Example 120b]
15 nM	C=CC(=O)N1CC2(CC(n3nc(N4CC[C@@H](N(C)C(C)=O)CC4(C)C)c(-c4c(Cl)c(C)cc5[nH]ncc45)c3C)C2)C1 (single isomer, unassigned) [Example 69b]
20 nM	C=CC(=O)N1CC2(CC(n3nc(N4CC[C@@H](CN5CCOCC5)CC4(C)C)c(-c4c(C)c(Cl)cc5[nH]ncc45)c3C)C2)C1 (single isomer, unassigned) [Example 233b]
405 nM	C=CC(=O)N1CC2(CC(n3nc(N4CC[C@@H](CN5CCn6cnnc6C5)CC4(C)C)c(-c4c(Cl)c(Cl)cc5[nH]ncc45)c3C)C2)C1 (single isomer, unassigned) [Example 250a]
4600 nM	C=CC(=O)N1CC2(CC(n3nc(N4CC[C@@H](CN5CC6(CCCN6C(C)=O)C5)CC4(C)C)c(-c4c(Cl)c(Cl)cc5[nH]ncc45)c3C)C2)C1 (single isomer, unassigned) [Example 285a]
